Assay results reported in patent US20240269133A1, “METHODS OF TREATING INTERSTITIAL CYSTITIS/BLADDER PAIN SYNDROME” (Purdue Pharma L.P., priority 2021, published 2024).

What was measured:
[1] = system: CYP-induced visceral pain; experiment: Cyclophosphamide (CYP)-induced visceral pain model (acute cystitis), von Frey testing; format: in vivo, female Sprague-Dawley rats; settings: for AUC 1-6 g (allodynia) / Nociceptive threshold: mean ± s.e.m.
[2] = Urine concentration after a single oral dose (methyl cellulose suspension); format: in vivo, humans; settings: human
[3] = 30 mg/kg p.o., overall 2-24 h after CYP

CC(C)Cc1ccc(C(C)C(=O)O)cc1 (centres unmarked) [Ibuprofen, reference compound]
Effect on nociceptive scores vs vehicle ([1]; 300 mg/kg p.o., all along the observation period (2-24 h)): significantly decreased | Effect on nociceptive threshold vs vehicle ([1]; 300 mg/kg p.o., overall 2-24 h after CYP): significant overall increase

O=C(O)c1nc2ccccc2n([C@H]2C[C@H]3CCC[C@@H](C2)N3C2CC3CCCC(C3)C2)c1=O (some centres unmarked) [compound of formula (IA)]
AUC 1-6 g (allodynia) ([1]; 30 mg/kg p.o., +2 h after CYP): 19.8±6.9 % scores × g | Nociceptive threshold ([1]; 30 mg/kg p.o., +2 h after CYP): 6.6 ± 0.8 g | AUC 1-6 g (allodynia) ([1]; 30 mg/kg p.o., +3 h after CYP): 19.3±6.3 % scores × g | Nociceptive threshold ([1]; 30 mg/kg p.o., +3 h after CYP): 6.3 ± 1.2 g | AUC 1-6 g (allodynia) ([1]; 30 mg/kg p.o., +4 h after CYP): 34.1±7.9 % scores × g | Nociceptive threshold ([1]; 30 mg/kg p.o., +4 h after CYP): 4.8 ± 0.8 g | AUC 1-6 g (allodynia) ([1]; 30 mg/kg p.o., +24 h after CYP): 61.8±15.7 % scores × g | Nociceptive threshold ([1]; 30 mg/kg p.o., +24 h after CYP): 3.7 ± 0.8 g | Effect on nociceptive threshold vs vehicle ([1]; 30 mg/kg p.o., CYP-injected rats, overall 2-24 h): overall inhibitory effect | Effect on nociceptive scores vs vehicle ([1]; 30 mg/kg p.o., from 2 h up to 24 h after CYP): significant decrease | Effect on AUC 1-6 g vs vehicle [1, 3]: overall decrease | Effect on CYP-induced AUC 6-26 g increase (hyperalgesia) vs vehicle [1, 3]: significant overall inhibitory effect | Urine concentration, mean ([2]; 0.2 mg single oral dose, 0 to 8 h): 2311 nM | Urine concentration, mean ([2]; 0.2 mg single oral dose, 8 to 16 h): 394 nM | Urine concentration, mean ([2]; 0.2 mg single oral dose, 16 to 24 h): BQL | Urine concentration, mean ([2]; 0.2 mg single oral dose, 24 to 32 h): BQL | Urine concentration, mean ([2]; 0.2 mg single oral dose, 32 to 40 h): BQL | Urine concentration, mean ([2]; 0.2 mg single oral dose, 40 to 48 h): BQL | Urine concentration, mean ([2]; 0.6 mg single oral dose, 0 to 8 h): 1641 nM | Urine concentration, mean ([2]; 0.6 mg single oral dose, 8 to 16 h): 531 nM | Urine concentration, mean ([2]; 0.6 mg single oral dose, 16 to 24 h): BQL | Urine concentration, mean ([2]; 0.6 mg single oral dose, 24 to 32 h): BQL | Urine concentration, mean ([2]; 0.6 mg single oral dose, 32 to 40 h): BQL | Urine concentration, mean ([2]; 0.6 mg single oral dose, 40 to 48 h): BQL | Urine concentration, mean ([2]; 2 mg single oral dose, 0 to 8 h): 10809 nM | Urine concentration, mean ([2]; 2 mg single oral dose, 8 to 16 h): 1440 nM | Urine concentration, mean ([2]; 2 mg single oral dose, 16 to 24 h): 400 nM | Urine concentration, mean ([2]; 2 mg single oral dose, 24 to 32 h): BQL | Urine concentration, mean ([2]; 2 mg single oral dose, 32 to 40 h): BQL | Urine concentration, mean ([2]; 2 mg single oral dose, 40 to 48 h): BQL | Urine concentration, mean ([2]; 10 mg single oral dose, 0 to 8 h): 30964 nM | Urine concentration, mean ([2]; 10 mg single oral dose, 8 to 16 h): 14181 nM | Urine concentration, mean ([2]; 10 mg single oral dose, 16 to 24 h): 1994 nM | Urine concentration, mean ([2]; 10 mg single oral dose, 24 to 32 h): 535 nM | Urine concentration, mean ([2]; 10 mg single oral dose, 32 to 40 h): 240 nM | Urine concentration, mean ([2]; 10 mg single oral dose, 40 to 48 h): BQL
